Activity calls are given as the source filed them. The rule behind the calls is not given here.
Test system: CCRIS mutagenicity, Ames/micronucleus/aberration tests
Assay: CCRIS mutagenicity studies
[1] = Test System: AMES SALMONELLA TYPHIMURIUM, Strain/Indicator: TA98, Metabolic Activation: RAT, LIVER, S-9, AROCLOR 1254 (10%), Method: PREINCUBATION
[2] = Test System: AMES SALMONELLA TYPHIMURIUM, Strain/Indicator: TA100, Metabolic Activation: NONE, Method: PREINCUBATION
[3] = Test System: AMES SALMONELLA TYPHIMURIUM, Strain/Indicator: TA100, Metabolic Activation: RAT, LIVER, S-9, AROCLOR 1254 (10%), Method: PREINCUBATION
[4] = Test System: AMES SALMONELLA TYPHIMURIUM, Strain/Indicator: TA1535, Metabolic Activation: NONE, Method: PREINCUBATION
[5] = Test System: AMES SALMONELLA TYPHIMURIUM, Strain/Indicator: TA1537, Metabolic Activation: NONE, Method: PREINCUBATION

## CN(C)CCCN1c2ccccc2Sc2ccc(Cl)cc21
End Point: IN VITRO CHROMOSOMAL ABERRATIONS, Test System: CHINESE HAMSTER OVARY CELLS, Metabolic Activation: NONE
  mutagenic call: inactive; negative
End Point: IN VITRO CHROMOSOMAL ABERRATIONS, Test System: CHINESE HAMSTER OVARY CELLS, Metabolic Activation: RAT, LIVER, S-9, AROCLOR 1254
  mutagenic call: inactive; negative
Test System: AMES SALMONELLA TYPHIMURIUM, Strain/Indicator: TA98, Metabolic Activation: HAMSTER, LIVER, S-9, AROCLOR 1254 (10%), Method: PREINCUBATION
  mutagenic call: inactive; negative
Test System: AMES SALMONELLA TYPHIMURIUM, Strain/Indicator: TA98, Metabolic Activation: NONE, Method: PREINCUBATION
  mutagenic call: inactive; negative
Test System: AMES SALMONELLA TYPHIMURIUM, Strain/Indicator: TA98, Metabolic Activation: NONE, Method: SPOT TEST
  mutagenic call: inactive; negative
Test System: AMES SALMONELLA TYPHIMURIUM, Strain/Indicator: TA98, Metabolic Activation: NONE, Method: STANDARD PLATE
  mutagenic call: inactive; negative
[1]
  mutagenic call: inactive; negative
Test System: AMES SALMONELLA TYPHIMURIUM, Strain/Indicator: TA98, Metabolic Activation: RAT, LIVER, S-9, AROCLOR 1254, Method: STANDARD PLATE
  mutagenic call: inactive; negative
Test System: AMES SALMONELLA TYPHIMURIUM, Strain/Indicator: TA100, Metabolic Activation: HAMSTER, LIVER, S-9, AROCLOR 1254 (10%), Method: PREINCUBATION
  mutagenic call: inactive; negative
[2]
  mutagenic call: inactive; negative
Test System: AMES SALMONELLA TYPHIMURIUM, Strain/Indicator: TA100, Metabolic Activation: NONE, Method: STANDARD PLATE
  mutagenic call: inactive; negative
[3]
  mutagenic call: inactive; negative
Test System: AMES SALMONELLA TYPHIMURIUM, Strain/Indicator: TA100, Metabolic Activation: RAT, LIVER, S-9, AROCLOR 1254, Method: STANDARD PLATE
  mutagenic call: inactive; negative
Test System: AMES SALMONELLA TYPHIMURIUM, Strain/Indicator: TA1535, Metabolic Activation: HAMSTER, LIVER, S-9, AROCLOR 1254 (10%), Method: PREINCUBATION
  mutagenic call: inactive; negative
[4]
  mutagenic call: inactive; negative
Test System: AMES SALMONELLA TYPHIMURIUM, Strain/Indicator: TA1535, Metabolic Activation: NONE, Method: STANDARD PLATE
  mutagenic call: inactive; negative
Test System: AMES SALMONELLA TYPHIMURIUM, Strain/Indicator: TA1535, Metabolic Activation: RAT, LIVER, S-9, AROCLOR 1254 (10%), Method: PREINCUBATION
  mutagenic call: inactive; negative
Test System: AMES SALMONELLA TYPHIMURIUM, Strain/Indicator: TA1535, Metabolic Activation: RAT, LIVER, S-9, AROCLOR 1254, Method: STANDARD PLATE
  mutagenic call: inactive; negative
Test System: AMES SALMONELLA TYPHIMURIUM, Strain/Indicator: TA1537, Metabolic Activation: HAMSTER, LIVER, S-9, AROCLOR 1254 (10%), Method: PREINCUBATION
  mutagenic call: inactive; negative
[5]
  mutagenic call: inactive; negative
Test System: AMES SALMONELLA TYPHIMURIUM, Strain/Indicator: TA1537, Metabolic Activation: NONE, Method: STANDARD PLATE
  mutagenic call: inactive; negative
Test System: AMES SALMONELLA TYPHIMURIUM, Strain/Indicator: TA1537, Metabolic Activation: RAT, LIVER, S-9, AROCLOR 1254 (10%), Method: PREINCUBATION
  mutagenic call: active; positive
Test System: AMES SALMONELLA TYPHIMURIUM, Strain/Indicator: TA1537, Metabolic Activation: RAT, LIVER, S-9, AROCLOR 1254, Method: STANDARD PLATE
  mutagenic call: inactive; negative
Test System: CHINESE HAMSTER V-79, Strain/Indicator: V-79/6-THIOGUANINE, Metabolic Activation: NONE
  mutagenic call: inactive; negative
Test System: CHINESE HAMSTER V-79, Strain/Indicator: V-79/OUABAIN, Metabolic Activation: NONE
  mutagenic call: inactive; negative

## O=C1c2c(O)ccc(O)c2C(=O)c2c(NCCO)ccc(NCCO)c21
Test System: MOUSE LYMPHOMA, Strain/Indicator: L5178Y (TK+/TK-), Metabolic Activation: NONE, Method: SUSPENSION/PLATE
  mutagenic call: active; positive

## Cc1c(N)nc([C@H](CC(N)=O)NC[C@H](N)C(N)=O)nc1C(=O)N[C@H](C(=O)N[C@H](C)[C@@H](O)[C@H](C)C(=O)N[C@H](C(=O)NCCc1nc(-c2nc(C(=O)NCCCN(C)CCCN(Cc3ccc(OCc4ccccc4)c(OCc4ccccc4)c3)Cc3ccc(OCc4ccccc4)c(OCc4ccccc4)c3)cs2)cs1)[C@@H](C)O)[C@@H](O[C@@H]1O[C@@H](CO)[C@@H](O)[C@H](O)[C@@H]1O[C@H]1O[C@H](CO)[C@@H](O)[C@H](OC(N)=O)[C@@H]1O)c1cnc[nH]1
Test System: AMES SALMONELLA TYPHIMURIUM, Strain/Indicator: TA94, Metabolic Activation: NONE, Method: PREINCUBATION
  mutagenic call: inactive; negative
Test System: AMES SALMONELLA TYPHIMURIUM, Strain/Indicator: TA102, Metabolic Activation: NONE, Method: PREINCUBATION
  mutagenic call: active; positive

## Cc1ccc(S(=O)(=O)NC2CCCCC2)cc1
Test System: AMES SALMONELLA TYPHIMURIUM, Strain/Indicator: TA97, Metabolic Activation: HAMSTER, LIVER, S-9, AROCLOR 1254 (10 OR 30%), Method: PREINCUBATION
  mutagenic call: inactive; negative
Test System: AMES SALMONELLA TYPHIMURIUM, Strain/Indicator: TA97, Metabolic Activation: NONE, Method: PREINCUBATION
  mutagenic call: inactive; negative
Test System: AMES SALMONELLA TYPHIMURIUM, Strain/Indicator: TA97, Metabolic Activation: RAT, LIVER, S-9, AROCLOR 1254 (10 OR 30%), Method: PREINCUBATION
  mutagenic call: inactive; negative
Test System: AMES SALMONELLA TYPHIMURIUM, Strain/Indicator: TA98, Metabolic Activation: HAMSTER, LIVER, S-9, AROCLOR 1254 (10 OR 30%), Method: PREINCUBATION
  mutagenic call: inactive; negative
[1]
  mutagenic call: inactive; negative
Test System: AMES SALMONELLA TYPHIMURIUM, Strain/Indicator: TA98, Metabolic Activation: RAT, LIVER, S-9, AROCLOR 1254 (30%), Method: PREINCUBATION
  mutagenic call: inactive; negative
Test System: AMES SALMONELLA TYPHIMURIUM, Strain/Indicator: TA100, Metabolic Activation: HAMSTER, LIVER, S-9, AROCLOR 1254 (10 OR 30%), Method: PREINCUBATION
  mutagenic call: inactive; negative
[2]
  mutagenic call: inactive; negative
[3]
  mutagenic call: inactive; negative
Test System: AMES SALMONELLA TYPHIMURIUM, Strain/Indicator: TA100, Metabolic Activation: RAT, LIVER, S-9, AROCLOR 1254 (30%), Method: PREINCUBATION
  mutagenic call: inactive; negative
Test System: AMES SALMONELLA TYPHIMURIUM, Strain/Indicator: TA1535, Metabolic Activation: HAMSTER, LIVER, S-9, AROCLOR 1254 (10 OR 30%), Method: PREINCUBATION
  mutagenic call: inactive; negative
[4]
  mutagenic call: inactive; negative
Test System: AMES SALMONELLA TYPHIMURIUM, Strain/Indicator: TA1535, Metabolic Activation: RAT, LIVER, S-9, AROCLOR 1254 (10 OR 30%), Method: PREINCUBATION
  mutagenic call: inactive; negative
Test System: AMES SALMONELLA TYPHIMURIUM, Strain/Indicator: TA1537, Metabolic Activation: HAMSTER, LIVER, S-9, AROCLOR 1254 (30%), Method: PREINCUBATION
  mutagenic call: inactive; negative
[5]
  mutagenic call: inactive; negative
Test System: AMES SALMONELLA TYPHIMURIUM, Strain/Indicator: TA1537, Metabolic Activation: RAT, LIVER, S-9, AROCLOR 1254 (30%), Method: PREINCUBATION
  mutagenic call: inactive; negative
